According to patent US20210253598A1, “ARYL ANNULATED MACROCYCLIC INDOLE DERIVATIVES” (priority 2017, published 2021):
Counter-ions that a name gives are not always drawn.

Assays:
MV-4-11 = assay: Anti-proliferative effect in MV-4-11 cells, CellTiter-Glo (Assay 7); type: cell-based; settings: read-out: Antiproli MV-4-11; MV-4-11, 72 hours incubation, CellTiter-Glo; several values per example
Summary of the method: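 72 h CTG viability assay, 37 °C, humidified. Time-zero plate as baseline; IC50 vs day 0 and DMSO controls.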

MCL-1 = MCL-1 (Homo sapiens, UniProt Q07820, K194A/K197A/R201A); assay: Protein-compound interaction assay, surface plasmon resonance (SPR assay, Assay 8); type: binding; settings: KD [M], SPR, immobilized MBP-MCL-1, 25° C.; geometric mean
Chain of MCL-1 (Q07820 173-321 K194A/K197A/R201A, looked up): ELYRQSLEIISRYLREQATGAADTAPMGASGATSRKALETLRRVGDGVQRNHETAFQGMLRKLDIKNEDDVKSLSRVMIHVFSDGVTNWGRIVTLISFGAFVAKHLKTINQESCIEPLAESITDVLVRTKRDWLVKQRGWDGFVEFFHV
Source text: Protein-Compound Interaction Assay (SPR Assay)
The ability of the compounds described in this invention to bind to MCL-1 may be determined using surface plasmon resonance (SPR). This allows for the quantification of binding in terms of the equilibrium dissociation constant (KD [M]), as well as association and dissociation rate constants (kon [1/M 1/s] and koff [1/s], respectively). The measurements may be performed using Biacore® T200 or Biacore® S200 instruments (GE Healthcare).
Briefly, carboxymethylated dextran biosensor chips (Series S Sensor Chip CM5, GE Healthcare) were activated with 1-ethyl-3-(3-dimethylaminopropyl)-carbodiimide hydrochloride (EDC) and N-hydroxysuccinimide (NHS) according to the supplier's instructions. MBP-MCL-1 was diluted in 1×PBS-P+ (GE Healthcare) and injected on the activated chip surface. Subsequently, a solution of 1 M ethanolamine-HCl (GE Healthcare) was injected to block unreacted groups, resulting in approximately 400-2500 response units (RU) of immobilized protein. A reference surface was generated by treatment with NHS-EDC and ethanolamine-HCl. […] Compounds were injected for 60 s followed by a dissociation time of up to 1000 s.
The double-referenced sensorgrams were fit to a simple reversible Langmuir 1:1 reaction mechanism as implemented in the Biacore® T200 and S200 evaluation software (T200 evaluation software version 2.0 and S200 evaluation software version 1.0, GE Healthcare).

BCL-2 = BCL-2 (Homo sapiens, UniProt P10415); assay: Protein-protein interaction assay BCL-2/Bad BH3 peptide, TR-FRET (BCL-2 assay, Assay 3); type: binding; settings: His-BCL-2 / Bad BH3 peptide, median
Chain of BCL-2 (P10415 1-211): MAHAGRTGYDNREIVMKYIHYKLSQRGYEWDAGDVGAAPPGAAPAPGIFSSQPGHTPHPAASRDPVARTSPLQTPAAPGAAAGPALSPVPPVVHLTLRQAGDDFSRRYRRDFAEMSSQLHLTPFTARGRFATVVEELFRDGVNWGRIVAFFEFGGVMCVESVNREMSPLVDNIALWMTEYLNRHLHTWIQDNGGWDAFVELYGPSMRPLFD

BCL-XL = BCL-XL (Homo sapiens, UniProt Q07817); assay: Protein-protein interaction assay BCL-XL/Bad BH3 peptide, TR-FRET (BCL-XL assay, Assay 2); type: binding; settings: His-BCL-XL / Bad BH3 peptide, median
Chain of BCL-XL (Q07817 1-212): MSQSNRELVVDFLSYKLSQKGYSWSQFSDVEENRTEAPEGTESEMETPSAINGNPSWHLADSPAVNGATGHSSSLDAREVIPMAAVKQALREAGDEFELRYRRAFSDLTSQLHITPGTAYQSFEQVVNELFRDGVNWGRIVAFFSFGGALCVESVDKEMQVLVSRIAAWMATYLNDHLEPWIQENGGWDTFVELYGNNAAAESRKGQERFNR

HMC-1-8 = assay: Anti-proliferative effect in HMC-1-8 cells, CellTiter-Glo (Assay 7); type: cell-based; settings: read-out: Antiproli HMC-1-8, HMC-1-8, 72 hours incubation
Method: Assessment of the Anti-Proliferative Effect of Compounds in Different Cell Lines
The impact of compounds on the proliferation of different cell lines was assessed using the CellTiter-Glo® Luminescent Cell Viability reagent from Promega (G7573).
In parallel, cells were plated in a reference (day 0) plate for time zero determination. Cells were incubated in a humidified incubator at 37° C. overnight.
Rim wells were excluded. The cells were incubated for 72 hours in a humidified incubator at 37° C. The day 0 plate was measured by adding 30 μL/well of CTG solution (CellTiter-Glo® Luminescent Cell Viability reagent, Promega G7573) to time zero wells in the reference plate followed by a 10 minutes incubation and luminescence reading at 0.1 ms. using the PHERAstar FS microplate reader (BMG Labtech).
After 72 hours incubation, the treated plates were measured in the same way as the day 0 plate mentioned above. The Bella DRC Master Sheet was used to calculate IC50s, with CI=day 0 values and C0=DMSO control values.

CCc1c2c(nn1C)COCc1ccccc1Cn1c(C(=O)O)c(CCCOc3cccc4cc(F)ccc34)c3ccc(Cl)c-2c31 (single isomer, unassigned; enantiomer 1) [Example 55, (−)-3-Chloro-4-ethyl-17-{3-[(6-fluoronaphthalen-1-yl)oxy]propyl}-5-methyl-5,7,9,14-tetrahydro-indolo[7,1-fg]pyrazolo[3,4-d][2,8]benzoxazacycloundecine-16-carboxylic Acid N-ethylethanamine Salt (Enantiomer 1)]
IC50 (MV-4-11): 0.964 µM | Kd (MCL-1): 3.9e-09 M | IC50 (BCL-2): 18 µM | IC50 (BCL-XL): > 20 µM | IC50 (HMC-1-8): 2.39 µM
